These results are taken from patent US9480259B2, “Pyrazolopyrans having herbicidal and pharmaceutical properties” (BASF SE, priority 2012, dated 2016).

Some results are limits rather than exact numbers.

For this assay, the target named is Arabidopsis thaliana SHMT. The experiment in a line: SHMT activity assay (ED50 SHMT), coupled with N5,N10-CH2-THF dehydrogenase, NADH at 340 nm. Format: biochemical. A digest of the protocol: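 His-tagged SHMT purified on Ni-NTA. NADH formation followed at 340 nm for 30 min; ED50 from inhibition of initial velocity.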
Where [1] appears, read: Table 2, values given as upper bounds.
Setting [2] is: inhibition of initial velocity of Arabidopsis thaliana SHMT.
The mark [3] stands for this setting: Arabidopsis thaliana SHMT enzyme assay, values given as upper bounds.
[4] abbreviates: Table 2, Arabidopsis thaliana SHMT enzyme assay, values given as upper bounds.

As a reminder, the EC50 is the midpoint of the concentration-response curve. Higher therefore signals lower potency in that assay. Take `Cc1n[nH]c2c1C(c1cc(Cl)cc(Cl)c1)(C1(F)COC1)C(C#N)=C(N)O2` (racemic) [Compound 2.478]: the EC50 under setting [1] was less than 100 nM. Same read-out and setting: to `CCC1(c2ccc(OC)cc2)C(C#N)=C(N)Oc2[nH]nc(C)c21` (stereo not drawn) [Compound 2.22.] belongs less than 1000 nM. Take `Cc1n[nH]c2c1C(c1cc(Cl)cc(OCC#N)c1)(C1CCC1)C(C#N)=C(N)O2` (stereo not drawn) [Compound 2.443]: under setting [1], the EC50 is less than 10 nM.

Compound `Cc1n[nH]c2c1C(c1ccc(OCc3nnn[nH]3)c(Cl)c1)(C1CCC1)C(C#N)=C(N)O2` (stereo not drawn) [Compound 2.638] displayed an EC50 under setting [1] of less than 10 nM. Same read-out and setting: the value for `N#CC1=C(N)Oc2[nH]nc(C3CC3)c2C1(c1ccc(Cl)cc1)C1CC1` (stereo not drawn) [Compound 2.129.] was less than 10000 nM. The same measure, in the same setting: to `CCC1(c2ccc(C)c(Br)c2)C(C#N)=C(N)Oc2[nH]nc(C)c21` (stereo not drawn) [Compound 2.466] belongs less than 100 nM. `Cc1csc(C2(C3CC3)C(C#N)=C(N)Oc3[nH]nc(C)c32)c1` (racemic) [Compound 4.70] registered an EC50 under setting [2] of less than 1000 nM. With `COC(=O)c1cc(OC(F)(F)F)cc(-c2cc(C#N)cc(C3(C4CCC4)C(C#N)=C(N)Oc4[nH]nc(C)c43)c2)c1` (stereo not drawn) [Compound 2.551], under setting [1], the EC50 was less than 100 nM. Under setting [3], `Cc1n[nH]c2c1C(c1cc(CN)cc(N(C)C(=O)CCCC(=O)O)c1)(C(C)C)C(C#N)=C(N)O2` (stereo not drawn) [Compound 2.689] displayed an EC50 of less than 1000 nM. Compound `CCC1(c2cc(Oc3ccccc3)cc(C(F)(F)F)c2)C(C#N)=C(N)Oc2[nH]nc(C)c21` (stereo not drawn) [Compound 2.86.] registered an EC50 under setting [1] of less than 1000 nM.

Compound `Cc1n[nH]c2c1C(c1cc3c(C(F)(F)F)cccc3s1)(C1CCC1)C(C#N)=C(N)O2` (stereo not drawn) [Compound 4.38] yielded an EC50 under setting [2] of less than 10 nM. `Cc1n[nH]c2c1C(c1cc(C#N)cc(N(C)C(=O)CCCC#N)c1)(C1CCC1)C(C#N)=C(N)O2` (stereo not drawn) [Compound 2.659] had an EC50 under setting [3] of less than 10 nM. As to `Cc1n[nH]c2c1C(c1cc(C#N)cc(-c3cccc(C(=O)O)c3)c1)(C1(F)CC1)C(C#N)=C(N)O2` (stereo not drawn) [Compound 2.510], under setting [1], the EC50 is less than 10 nM. `N#CC1=C(N)Oc2[nH]ncc2C1(c1cc(Br)cc(Br)c1)C1CCC1` (stereo not drawn) [Compound 2.251] returned an EC50 under setting [4] of less than 10 nM.

With `Cc1n[nH]c2c1C(c1cc(Cl)cc(-c3cccc(-c4nnn[nH]4)c3)c1)(C1CCC1)C(C#N)=C(N)O2` (stereo not drawn) [Compound 2.515], the EC50 under setting [1] was less than 10 nM.

In turn, `Cc1n[nH]c2c1C(c1cc(Cl)cc(Oc3ccccc3)c1)(C1CC1)C(C#N)=C(N)O2` (stereo not drawn) [Compound 2.153.] had an EC50 under setting [1] of less than 100 nM. Under setting [3], `COC(=O)c1csc(-c2cc(C#N)cc(C3(C(C)C)C(C#N)=C(N)Oc4[nH]nc(C)c43)c2)c1` (stereo not drawn) [Compound 2.679] gave an EC50 of less than 10 nM. For `COCCOCC(=O)N(C)c1cc(C#N)cc(C2(C(C)C)C(C#N)=C(N)Oc3[nH]nc(C)c32)c1` (stereo not drawn) [Compound 2.666], under setting [3], the EC50 is less than 10 nM.

As for `CC(C)C1(c2cc(Br)cc(Br)c2)C(C#N)=C(N)Oc2[nH]ncc21` (stereo not drawn) [Compound 2.287], under setting [4], the EC50 was less than 10 nM. Regarding `CCCC1(c2cc(C#N)cc(C#N)c2)C(C#N)=C(N)Oc2[nH]nc(COC)c21` (stereo not drawn) [Compound 2.593], the EC50 under setting [1] was less than 10000 nM.

`Cc1n[nH]c2c1C(c1cc(C#N)cc(N(C)C(=O)CCCc3nnn[nH]3)c1)(C(C)C)C(C#N)=C(N)O2` (stereo not drawn) [Compound 2.722]: the EC50 under setting [3] was less than 100 nM. Take `CCOc1n[nH]c2c1C(c1cc(C#N)cc(C(F)(F)F)c1)(C1CCC1)C(C#N)=C(N)O2` (stereo not drawn) [Compound 2.391]: the EC50 under setting [4] was less than 100 nM. `COc1c(Cl)cc(C2(C3CCC3)C(C#N)=C(N)Oc3[nH]nc(C)c32)cc1C#N` (stereo not drawn) [Compound 2.487] showed an EC50 under setting [1] of less than 10 nM.

For the compound `CCC1(c2cc(C(F)(F)F)cc(C(F)(F)F)c2)C(C#N)=C(N)Oc2[nH]nc(CCC(F)F)c21` (stereo not drawn) [Compound 2.107.], the EC50 under setting [1] was less than 1000 nM. Under setting [2], `COc1ccc2cc(C3(C4(F)CC4)C(C#N)=C(N)Oc4[nH]nc(C)c43)ccc2c1` (racemic) [Compound 4.40] had an EC50 of less than 10 nM.

In the case of `CCc1n[nH]c2c1C(CC)(c1cc(C#N)cc(C(F)(F)F)c1)C(C#N)=C(N)O2` (stereo not drawn) [Compound 2.574], the EC50 under setting [1] was less than 10 nM. `Cc1n[nH]c2c1C(c1cc(Cl)cc(C(F)(F)F)c1)(C(C)C)C(C#N)=C(N)O2` (stereo not drawn) [Compound 2.316] showed an EC50 under setting [4] of less than 10 nM. Under setting [4], `Cc1n[nH]c2c1C(c1ccc(C(F)(F)F)c(C(F)(F)F)c1)(C1CCC1)C(C#N)=C(N)O2` (stereo not drawn) [Compound 2.272] yielded a 50% effective concentration (EC50) of less than 10 nM. Take `Cc1n[nH]c2c1C(c1cc(Cl)cc(-c3cccc(C(=O)O)c3)c1)(C1CCC1)C(C#N)=C(N)O2` (stereo not drawn) [Compound 2.482]: under setting [1], the EC50 is less than 10 nM.

Consider `CCCC1(c2cc(Br)cc(C#N)c2)C(C#N)=C(N)Oc2[nH]nc(COC)c21` (stereo not drawn) [Compound 2.592], for which the EC50 under setting [1] is less than 1000 nM.

The compound `N#CC1=C(N)Oc2[nH]ncc2C1(c1cc(Br)cc(C#N)c1)C1CC=CC1` (stereo not drawn) [Compound 2.376] registered an EC50 under setting [4] of less than 10 nM.

`CCC1(c2cc(C(F)(F)F)cc(C(F)(F)F)c2)C(C#N)=C(N)Oc2[nH]nc(COC)c21` (stereo not drawn) [Compound 2.82.] showed an EC50 under setting [1] of less than 1000 nM. On the same count and under the same terms, the value for `Cc1n[nH]c2c1C(c1cccc(C(F)(F)F)c1)(C1CCC1)C(C#N)=C(N)O2` (stereo not drawn) [Compound 2.169.] was less than 10 nM; that for `Cc1n[nH]c2c1C(c1cc(C#N)cc(-c3cccc(C(=O)O)c3)c1)(C1CCC1)C(C#N)=C(N)O2` (stereo not drawn) [Compound 2.461] was less than 10 nM. The compound `Cc1n[nH]c2c1C(c1ccc(CCc3nnn[nH]3)c(-c3nnn[nH]3)c1)(C1CCC1)C(C#N)=C(N)O2` (stereo not drawn) [Compound 2.654] showed an EC50 under setting [3] of less than 100 nM. In turn, `Cc1n[nH]c2c1C(C(C)C)(C(F)(F)c1cccc(Cl)c1)C(C#N)=C(N)O2` (stereo not drawn) [Compound 4.67] displayed an EC50 under setting [2] of less than 1000 nM. In turn, `CCC1(c2cc(Cl)cc(Oc3ccccc3)c2)C(C#N)=C(N)Oc2[nH]nc(C)c21` (stereo not drawn) [Compound 2.113.] registered an EC50 under setting [1] of less than 100 nM. `Cc1n[nH]c2c1C(c1ccc(CC#N)c(-c3nnn[nH]3)c1)(C1CCC1)C(C#N)=C(N)O2` (stereo not drawn) [Compound 2.708] gave an EC50 under setting [3] of less than 10000 nM. Turning to `Cc1n[nH]c2c1C(c1nc3ccccc3o1)(C1CCC1)C(C#N)=C(N)O2` (stereo not drawn) [Compound 4.46], the EC50 under setting [2] is less than 10 nM. As for `Cc1n[nH]c2c1C(c1cc(Cl)cc(-c3cccc(C(F)(F)F)c3)c1)(C1CCC1)C(C#N)=C(N)O2` (stereo not drawn) [Compound 2.249], the EC50 under setting [4] was less than 10 nM.

In turn, `Cc1n[nH]c2c1C(c1cc(Br)cc(OC(F)(F)F)c1)(C1CCC1)C(C#N)=C(N)O2` (stereo not drawn) [Compound 2.307] came in with an EC50 under setting [4] of less than 10 nM. For the compound `Cc1n[nH]c2c1C(c1ccc(F)c(OC(F)(F)F)c1)(C1CCC1)C(C#N)=C(N)O2` (stereo not drawn) [Compound 2.265], the EC50 under setting [4] was less than 10 nM. Same read-out and setting: the value for `Cc1n[nH]c2c1C(c1cc(Cl)c(F)c(Cl)c1)(C1CCC1)C(C#N)=C(N)O2` (stereo not drawn) [Compound 2.242] was less than 10 nM. `N#CC1=C(N)Oc2[nH]nc(C(F)F)c2C1(c1cccc(C#N)c1)C1CCC1` (stereo not drawn) [Compound 2.194.]: under setting [1], the EC50 was less than 1000 nM. `Cc1n[nH]c2c1C(c1cc(-c3cccc(C(F)(F)F)c3)cs1)(C1CCC1)C(C#N)=C(N)O2` (stereo not drawn) [Compound 4.68] showed an EC50 under setting [2] of less than 1000 nM.

In turn, `Cc1n[nH]c2c1C(c1cc(-c3ccccc3)cs1)(C1CC1)C(C#N)=C(N)O2` (stereo not drawn) [Compound 4.64] had an EC50 under setting [2] of less than 1000 nM. `CCC1(c2cc(Br)c(C)c(Br)c2)C(C#N)=C(N)Oc2[nH]nc(C)c21` (stereo not drawn) [Compound 2.473] yielded an EC50 under setting [1] of less than 10 nM. The compound `Cc1n[nH]c2c1C(c1cc(-c3ccsc3)cs1)(C1CCC1)C(C#N)=C(N)O2` (stereo not drawn) [Compound 4.33] came in with an EC50 under setting [2] of less than 10 nM.
